From US20130119363A1, “FLUORINE-CONTAINING AROMATIC COMPOUND, ORGANIC SEMICONDUCTOR MATERIAL AND ORGANIC THIN FILM DEVICE” (ASAHI GLASS COMPANY, LIMITED, priority 2010, published 2013)

Assay: Evaluation of coating properties (orthodichlorobenzene solution, spin coating)
Type: physicochemical
Conditions: one mass % orthodichlorobenzene solution, filtered through a PTFE filter, spin coated on silicon substrate; thin film formed
Procedure: One mass % of orthodichlorobenzene solution of the fluorine-containing aromatic compound (II) obtained by the synthesis example (1-1) was prepared. The obtained solution was filtered with a PTFE (polytetrafluoroethylene) filter of which thickness was 0.45 μm, and thereafter, it was coated on a silicon substrate by the spin coating. A coating condition was 1500 rotations per minute for 30 seconds. Next, the silicon substrate was placed on the hot plate, and heated at 150° C. for 90 seconds. After that, a film thickness of a compound (II) layer formed on the silicon substrate was measured by using an AFM (atomic force microscope), and it was 70 nm.
One mass % of orthodichlorobenzene solution of the fluorine-containing aromatic compound (12) obtained by the synthesis example (2-1) was prepared. The obtained solution was filtered with the PTFE (polytetrafluoroethylene) filter of which thickness was 0.45 μm, and thereafter, it was coated on the silicon substrate by the spin coating. The coating condition was 1500 rotations per minute for 30 seconds. Next, the silicon substrate was placed on the hot plate, and the heating process was performed at 120° C. for 120 seconds. After that, a film thickness of a compound (12) layer formed on the silicon substrate was measured by using the AFM (atomic force microscope), and it was 80 nm.
One mass % of orthodichlorobenzene solution of the fluorine-containing aromatic compound (13) obtained by the synthesis example (3-1) was prepared. The obtained solution was filtered with the PTFE (polytetrafluoroethylene) filter of which thickness was […], and thereafter, it was coated on the silicon substrate by the spin coating. The coating condition was 1500 rotations per minute for 30 seconds. Next, the silicon substrate was placed on the hot plate, and heated at 120° C. for 120 seconds. After that, a film thickness of a fluorine-containing aromatic compound (13) layer formed on the silicon substrate was measured by using the AFM (atomic force microscope), and it was 90 nm.

| SMILES | solubility for general solvents |
| --- | --- |
| CCCCCCOc1c(F)c(F)c2c(F)c(C#Cc3ccc4cc(C#Cc5c(F)c(F)c6c(F)c(OCCCCCC)c(F)c(F)c6c5F)ccc4c3)c(F)c(F)c2c1F [Compound (11), 2,6-bis((6-hexyloxyhexafluoronaphthalene-2-yl)ethynyl)naphthalene] | good solubility |
| CCCCCCOc1c(F)c(F)c(C#Cc2ccc3cc(C#Cc4c(F)c(F)c(OCCCCCC)c(F)c4F)ccc3c2)c(F)c1F [Compound (12), 2,6-bis((4-hexyloxytetrafluorophenyl)ethynyl)naphthalene] | good solubility |
| CCCCCCOc1c(F)c(F)c(C#Cc2ccc(-c3ccc(-c4ccc(C#Cc5c(F)c(F)c(OCCCCCC)c(F)c5F)s4)s3)s2)c(F)c1F [Compound (13), 5,5″-bis((4-hexyloxytetrafluorophenyl)ethynyl)-2.2°: 5,2″-terthiophene] | good solubility |
